Consider four molecules from paper PMC10610095 (Pharmaceuticals, 2023).

One series addresses T1, GPR44 (1.1 B4 tumor) (Homo sapiens, UniProt Q9Y5Y4).
T1 construct: 1.1 B4 cells were implanted into NOD/SCID mice to generate GPR44-expressing mouse models; endogenous in cells; host or cells: human 1.1 B4 hybrid cell line (human pancreatic islet culture x PANC-1), subcutaneous xenograft in NOD/SCID mice
T1 sequence (Q9Y5Y4 1-395): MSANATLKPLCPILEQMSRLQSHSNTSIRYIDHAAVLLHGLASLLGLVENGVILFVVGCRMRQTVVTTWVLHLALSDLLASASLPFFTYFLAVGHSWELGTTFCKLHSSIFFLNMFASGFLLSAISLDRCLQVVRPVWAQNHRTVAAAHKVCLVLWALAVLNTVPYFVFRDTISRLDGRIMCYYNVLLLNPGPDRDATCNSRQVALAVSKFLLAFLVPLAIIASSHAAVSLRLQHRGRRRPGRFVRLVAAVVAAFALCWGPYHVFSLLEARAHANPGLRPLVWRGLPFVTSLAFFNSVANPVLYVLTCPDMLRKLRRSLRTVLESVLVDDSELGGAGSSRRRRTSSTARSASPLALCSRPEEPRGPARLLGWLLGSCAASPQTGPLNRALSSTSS
The series is described as follows: Biodistribution in NOD/SCID mice implanted with 1.1 B4 cells, with and without blocking agent. The note with it: 30 min p.i.; for pancreas uptake: 1.1 B4 model; for tumor uptake: 1.1 B4 tumor. Format: in vivo. The method, then:
NOD/SCID mice (n = 24) were subcutaneously injected with 1.1 B4 cells above their shoulders. Tumors were established 17–21 d after injection.
Under general anesthesia, NOD/SCID mice were administered doses of tracer (~3.7 MBq) intravenously through the tail vein, then the animals were euthanized at 30 min post-injection. Organs/tissues/tumors of interest were harvested, weighed, and gamma-counted. Radioactive uptakes were calculated and reported as percentage of injected dose per gram (% ID/g) for each organ/tissue/tumor.

The target in series [1] is T2, GPR44 (transplanted human islets) (Homo sapiens, UniProt Q9Y5Y4).
T2 construct: Only transplanted human islets were targeted by the GPR44 radio-probes; tissue Southern California Islet Cell Resources Center; host or cells: human pancreatic islets from healthy adult donors, 500 IEQ transplanted into the renal capsule of NOD/SCID mice
T2 sequence (Q9Y5Y4 1-395): T1 sequence (Q9Y5Y4 1-395)
The series is described as follows: Biodistribution in NOD/SCID mice with transplanted human islets in a renal capsule. Format: in vivo. The note with it: 500 IEQ human islets, 30 min p.i., two individual mice. The method, then: A procedure similar to that of the above murine biodistribution was performed in this biodistribution study. Mice were euthanized at 30 min post-injection, and the organs/tissues of interest were collected.
Human islets with diameters of less than 250 µm were used for transplantation. A total of 500 IEQ human islets were transplanted into the renal capsule of NOD/SCID mice (n = 5) using a well-established standard procedure.
Under general anesthesia, NOD/SCID mice were administered doses of tracer (~3.7 MBq) intravenously through the tail vein, then the animals were euthanized at 30 min post-injection. Organs/tissues/islets of interest were harvested, weighed, and gamma-counted. Radioactive uptakes were calculated and reported as percentage of injected dose per gram (% ID/g) for each organ/tissue/islet.

The nature of series [2]: Biodistribution in healthy control NOD/SCID mice. The note with it: i.v. Format: in vivo. The protocol:
The uptake of the tracer in the kidney was ~4.00 ± 0.80% ID/g at 30 min p.i, 2.11 ± 1.06% ID/g at 60 min p.i., and 1.33 ± 0.47% ID/g at 90 min p.i. […] Low tracer uptake levels were common in the majority of organs, excluding excretion organs such as the liver. […] Of the time points, 30 min post-injection was chosen to evaluate the next specific GPR44 mouse models.
The biodistribution of [^18F]TM30089 was investigated in healthy NOD/SCID mice at various time points post-injection. Three time points (30 min, 60 min, or 90 min post-injection) and one blocking time point (30 min post-injection) were selected in the biodistribution (n = 4/each group). […] Under general anesthesia, NOD/SCID mice were administered doses of tracer (~3.7 MBq) intravenously through the tail vein. At the above-specified time points, the animals were euthanized, and the organs/tissues of interest were harvested. Organs/tissues were weighed, and the gamma was counted. Radioactive uptakes were calculated and reported as percentage of injected dose per gram (% ID/g) for each organ.

In series [3] the test system is GPR44 vs thromboxane receptor (TP). More on the design: method as in PMID 15179446. The note with it: cited from earlier work.
For a further series, the system named is GPR44. On the set-up: method as in PMID 30557325. To be noted: clinical trial, orally administered; cited from earlier work.
A further series deals with DP1. On the set-up: method as in PMID 33800801. The note with it: cited from earlier work.
Another series has as its system TP. On the set-up: method as in PMID 33800801. The note with it: cited from earlier work.

Several values for one entry are separate records, joined by “and”; a condition that tells them apart may be missing. Equal values may be shown once.

Regarding `CN(C1CCc2c(c3ccccc3n2CC(=O)O)C1)S(=O)(=O)c1ccc([18F])cc1` (stereo not shown) [[^18F]TM-30089], the pancreas uptake came out at 0.26 ± 0.05 % ID/g on GPR44 (1.1 B4 tumor) (blocked group (cold TM30089 1 mg/kg)) and 0.38 ± 0.04 % ID/g at GPR44 (1.1 B4 tumor) (non-blocked group). The tumor uptake was 0.24 ± 0.02 % ID/g at GPR44 (1.1 B4 tumor) (blocked with cold TM30089 (1 mg/kg)) and 27.81 ± 1.71 % ID/g on GPR44 (1.1 B4 tumor) (non-blocked). In addition, in series [1], the “uptake in human islets transplanted into a kidney capsule” value was 10.87 % ID/g and 6.21 % ID/g. Moreover, the “uptake in other organs (heart, lung, pancreas, spleen)” value in series [2] is on record as “low uptakes”. Moreover, the kidney uptake is ~ 4.00 ± 0.80 % ID/g in series [2] (30 min p.i.), 2.11 ± 1.06 % ID/g in series [2] (60 min p.i.) and 1.33 ± 0.47 % ID/g in series [2] (90 min p.i.). Also, the results for the liver uptake in series [2] (30 min p.i.), in series [2] (60 min p.i.) and in series [2] (90 min p.i.) were 15.31 ± 0.16 % ID/g, 8.76 ± 1.60 % ID/g and 6.62 ± 0.57 % ID/g, respectively. Besides, the small intestine uptake was found to be 10.67 ± 2.13 % ID/g in series [2] (30 min p.i.), 10.14 ± 0.47 % ID/g in series [2] (60 min p.i.) and 9.90 ± 0.26 % ID/g in series [2] (90 min p.i.).

For `O=C(O)CCn1c2c(c3ccccc31)C[C@H](NS(=O)(=O)c1ccc(F)cc1)CC2` [ramatroban], the “selectivity for GPR44 than for TP (times less)” value in series [3] is “approximately 16 times”.

As to `CC(=O)Nc1cccc2c1c(Sc1ccc(Cl)cc1)c(C)n2CC(=O)O` [AZD1981], in the series on GPR44, the “improvement in insulin secretion” value is on record as “did not show a significant improvement in insulin secretion”.

Take `CN(C1CCc2c(c3ccccc3n2CC(=O)O)C1)S(=O)(=O)c1ccc(F)cc1` (stereo not shown) [TM-30089, {3-[(4-fluoro-benzenesulfonyl)methyl-amino]-1,2,3,4-tetrahydro-carbazol-9-yl}acetic acid]: the “off-target binding to DP1” value with DP1 is “negligible off-target binding”. Also, the “off-target binding to TP” value in the series on TP is given as “negligible off-target binding”.
